Measurements as given in ChEMBL document CHEMBL5620361, “A prodrug of the capsid assembly modulator improved druggability and lowing HBsAg and HBeAg for the treatment of chronic hepatitis B” (Eur J Med Chem, 2023).
Several values for one entry are separate records, joined by “and”; a condition that tells them apart may be missing. Equal entries are not always repeated. Blank lines part the entries; values can stand above or below the compound they belong to. Activity calls are given as the source filed them. The calls are words filed in the database; no cut-off is given here.

Assays:
Hepatitis B virus [1] = experiment: Antiviral activity against HBV in mouse model infected with adeno-associated virus harbouring HBV genome assessed as log reduction in HBV DNA at 20 mg/kg, po qd for 8 weeks; format: functional
Hepatitis B virus [2] = experiment: Antiviral activity against HBV in mouse model infected with adeno-associated virus harbouring HBV genome assessed as log reduction in HBsAg at 20 mg/kg, po qd for 8 weeks; format: functional
Hepatitis B virus [3] = experiment: Antiviral activity against HBV in mouse model infected with adeno-associated virus harbouring HBV genome assessed as log reduction in HBeAg at 20 mg/kg, po qd for 8 weeks; format: functional
[4] = Prodrug conversion in ICR mouse assessed as Cmax of 4-((4-(5-chloro-2-fluoro-6-((3-hydroxypropyl)amino)pyridin-3-yl)-1-oxophthalazin-2(1H)-yl)methyl)benzonitrile metabolite at 20 mg/kg, po measured for 24 hrs by LC-MS/MS analysis; format: ADME, organism-based; settings: in vivo
[5] = Prodrug conversion in ICR mouse assessed as AUClast of 4-((4-(5-chloro-2-fluoro-6-((3-hydroxypropyl)amino)pyridin-3-yl)-1-oxophthalazin-2(1H)-yl)methyl)benzonitrile metabolite at 20 mg/kg, po measured for 24 hrs by LC-MS/MS analysis; format: ADME, organism-based; settings: in vivo
[6] = Prodrug conversion in ICR mouse assessed as Cmax of 3-((3-chloro-5-(3-(4-cyanobenzyl)-4-oxo-3,4-dihydrophthalazin-1-yl)-6-fluoropyridin-2-yl)amino)propanoic acid metabolite at 20 mg/kg, po measured for 24 hrs by LC-MS/MS analysis; format: ADME, organism-based; settings: in vivo
[7] = Prodrug conversion in ICR mouse assessed as AUClast of 3-((3-chloro-5-(3-(4-cyanobenzyl)-4-oxo-3,4-dihydrophthalazin-1-yl)-6-fluoropyridin-2-yl)amino)propanoic acid metabolite at 20 mg/kg, po measured for 24 hrs by LC-MS/MS analysis; format: ADME, organism-based; settings: in vivo
[8] = Cytotoxicity against human HepG2.2.15 cells harboring HBV genome incubated for 8 days by MTT assay; format: toxicity, cell-based, HepG2 2.2.15; settings: time 8 day
Hepatitis B virus [9] = experiment: Antiviral activity against HBV in Balb/c mouse model infected with adeno-associated virus harbouring HBV 1.3 genome assessed as reduction in intrahepatic HBV DNA at 1 mg/kg, po qd for 4 weeks by Southern blot analysis; format: functional, organism-based
Mus musculus [10] = experiment: Effect on intrahepatic HBcAg expression in Balb/c mouse model infected with adeno-associated virus harbouring HBV 1.3 genome at 1 mg/kg, po qd for 4 weeks by Western blot analysis; format: functional, organism-based
Hepatitis B virus [11] = experiment: Antiviral activity against HBV in Balb/c mouse model infected with adeno-associated virus harbouring HBV 1.3 genome assessed as reduction in plasma HBV DNA at 1 mg/kg, po qd for 7 weeks followed by drug removal measured after 8 weeks by real-time PCR analysis; format: functional, organism-based
Mus musculus [12] = experiment: Effect on HBsAg expression in Balb/c mouse model infected with adeno-associated virus harbouring HBV 1.3 genome at 1 mg/kg, po qd for 7 weeks followed by drug removal measured after 8 weeks by chemiluminescence immunoassay; format: functional, organism-based
Mus musculus [13] = experiment: Effect on HBeAg expression in Balb/c mouse model infected with adeno-associated virus harbouring HBV 1.3 genome at 1 mg/kg, po qd for 7 weeks followed by drug removal measured after 8 weeks by chemiluminescence immunoassay; format: functional, organism-based
[14] = Prodrug conversion in ICR mouse assessed as half life of 4-((4-(5-chloro-2-fluoro-6-((3-hydroxypropyl)amino)pyridin-3-yl)-1-oxophthalazin-2(1H)-yl)methyl)benzonitrile metabolite at 20 mg/kg, po measured for 24 hrs by LC-MS/MS analysis; format: ADME, organism-based; settings: in vivo
[15] = Prodrug conversion in ICR mouse assessed as Tmax of 4-((4-(5-chloro-2-fluoro-6-((3-hydroxypropyl)amino)pyridin-3-yl)-1-oxophthalazin-2(1H)-yl)methyl)benzonitrile metabolite at 20 mg/kg, po measured for 24 hrs by LC-MS/MS analysis; format: ADME, organism-based; settings: in vivo
[16] = Prodrug conversion in ICR mouse assessed as half life of 3-((3-chloro-5-(3-(4-cyanobenzyl)-4-oxo-3,4-dihydrophthalazin-1-yl)-6-fluoropyridin-2-yl)amino)propanoic acid metabolite at 20 mg/kg, po measured for 24 hrs by LC-MS/MS analysis; format: ADME, organism-based; settings: in vivo
[17] = Prodrug conversion in ICR mouse assessed as Tmax of 3-((3-chloro-5-(3-(4-cyanobenzyl)-4-oxo-3,4-dihydrophthalazin-1-yl)-6-fluoropyridin-2-yl)amino)propanoic acid metabolite at 20 mg/kg, po measured for 24 hrs by LC-MS/MS analysis; format: ADME, organism-based; settings: in vivo
HepG2.2.15 [18] = experiment: Inhibition of HBeAg secretion in human HepG2.2.15 cells harboring HBV genome incubated for 8 days; format: functional, cell-based; settings: Hepatitis B virus, time 8.0 day
HepG2.2.15 [19] = experiment: Inhibition of HBsAg secretion in human HepG2.2.15 cells harboring HBV genome incubated for 8 days; format: functional, cell-based; settings: Hepatitis B virus, time 8.0 day
Hepatitis B virus [20] = experiment: Antiviral activity against HBV in human HepG2.2.15 cells harboring HBV genome assessed as reduction in HBV rcDNA incubated for 8 days by Southern blot analysis; format: functional, organism-based; settings: dose <= 800.0 nM, time 8.0 day
Hepatitis B virus [21] = experiment: Antiviral activity against HBV in human HepG2.2.15 cells harboring HBV genome assessed as reduction in HBV ssDNA incubated for 8 days by Southern blot analysis; format: functional, organism-based; settings: dose <= 800.0 nM, time 8.0 day
Hepatitis B virus [22] = experiment: Antiviral activity against HBV in human HepG2.2.15 cells harboring HBV genome assessed as formation of fast-migrating capsids lacking capsid-associated HBV DNA upto 80 nM by native agarose gel electrophoresis; format: functional, organism-based
Hepatitis B virus [23] = experiment: Antiviral activity against HBV in Balb/c mouse model infected with adeno-associated virus harbouring HBV 1.3 genome assessed as reduction in serum HBV DNA administered orally twice daily for 4 weeks by real-time PCR analysis; format: functional, organism-based; settings: dose 25-75 mg/kg, route po
Hepatitis B virus [24] = experiment: Antiviral activity against HBV in Balb/c mouse model infected with adeno-associated virus harbouring HBV 1.3 genome assessed as reduction in intrahepatic HBV DNA administered orally twice daily for 4 weeks by Southern blot analysis; format: functional, organism-based; settings: dose 50-75 mg/kg, route po
Hepatitis B virus [25] = experiment: Antiviral activity against HBV in Balb/c mouse model infected with adeno-associated virus harbouring HBV 1.3 genome assessed as reduction in intrahepatic HBcAg level administered orally twice daily for 4 weeks by Western blot analysis; format: functional, organism-based; settings: dose 50-75 mg/kg, route po
Hepatitis B virus [26] = experiment: Antiviral activity against HBV in Balb/c mouse model infected with adeno-associated virus harbouring HBV 1.3 genome assessed as reduction in cytoplasmic HBcAg level at 50 to 75 mg/kg, po bid for 4 weeks by IHC analysis; format: functional, organism-based; settings: dose 50-75 mg/kg
[27] = Toxicity in Balb/c mouse model infected with adeno-associated virus harbouring HBV 1.3 genome at 100 mg/kg, po bid; format: organism-based; settings: in vivo
Hepatitis B virus [28] = experiment: Antiviral activity against HBV in Balb/c mouse model infected with adeno-associated virus harbouring HBV 1.3 genome assessed as reduction in plasma HBV DNA at 100 mg/kg, po bid for 7 weeks followed by drug removal measured after 8 weeks by real-time PCR analysis; format: functional, organism-based
Hepatitis B virus [29] = experiment: Antiviral activity against HBV in Balb/c mouse model infected with adeno-associated virus harbouring HBV 1.3 genome assessed as reduction in plasma HBsAg level at 100 mg/kg, po bid for 7 weeks followed by drug removal measured after 8 weeks by chemiluminescence immunoassay; format: functional, organism-based
Hepatitis B virus [30] = experiment: Antiviral activity against HBV in Balb/c mouse model infected with adeno-associated virus harbouring HBV 1.3 genome assessed as reduction in plasma HBeAg level at 100 mg/kg, po bid for 7 weeks followed by drug removal measured after 8 weeks by chemiluminescence immunoassay; format: functional, organism-based
[31] = Half life in ICR mouse at 20 mg/kg, po measured for 24 hrs byb LC-MS/MS analysis; format: ADME, organism-based; settings: in vivo
[32] = Tmax in ICR mouse at 20 mg/kg, po measured for 24 hrs byb LC-MS/MS analysis; format: ADME, organism-based; settings: in vivo
[33] = Cmax in ICR mouse at 20 mg/kg, po measured for 24 hrs byb LC-MS/MS analysis; format: ADME, organism-based; settings: in vivo
[34] = AUClast in ICR mouse at 20 mg/kg, po measured for 24 hrs byb LC-MS/MS analysis; format: ADME, organism-based; settings: in vivo
Hepatitis B virus [35] = experiment: Antiviral activity against HBV in human HepG2.2.15 cells harboring HBV genome assessed as reduction in HBV DNA incubated for 8 days by real-time PCR analysis; format: functional, organism-based

SMILES: CCOC(=O)C1=C(CN2CCN3C(=O)N(CC(C)(C)C(=O)O)C[C@@H]3C2)N=C(c2nccs2)N[C@H]1c1cccc(F)c1C [LINVENCORVIR]
log(activity) (Hepatitis B virus [1]): 3
log(activity) (Hepatitis B virus [2]): 2.4
log(activity) (Hepatitis B virus [3]): 1.5

Cmax [4]: 48.2 ng/mL
AUClast [5]: 186 ng·h/mL
Cmax [6]: 321 ng/mL
AUClast [7]: 2727 ng·h/mL
SMILES: CC(C)OC(=O)[C@@H](C)N[P@](=O)(OCCCNc1nc(F)c(-c2nn(Cc3ccc(C#N)cc3)c(=O)c3ccccc23)cc1Cl)Oc1ccccc1 (single isomer, unassigned)

SMILES: C=C1[C@H](CO)[C@@H](O)C[C@@H]1n1cnc2c(=O)[nH]c(N)nc21 [ENTECAVIR ANHYDROUS]
CC50 at 192 h [8]: > 1000 nM
Activity (Hepatitis B virus [9]): Active
Activity (Mus musculus [10]): inactive
Activity (Hepatitis B virus [11]): Active
Activity (Mus musculus [12]): inactive
Activity (Mus musculus [13]): inactive

SMILES: CC(C)[C@H](N)C(=O)OCCCNc1nc(F)c(-c2nn(Cc3ccc(C#N)cc3)c(=O)c3ccccc23)cc1Cl
t1/2 [14]: 2.32 h
Tmax [15]: 0.42 h
Cmax [4]: 1065 ng/mL
AUClast [5]: 2296 ng·h/mL
t1/2 [16]: 2.85 h
Tmax [17]: 1.67 h
Cmax [6]: 3729 ng/mL
AUClast [7]: 13560 ng·h/mL
CC50 at 192 h [8]: 63100 nM
inhibition (HepG2.2.15 [18]): inactive
inhibition (HepG2.2.15 [19]): inactive
Activity (Hepatitis B virus [20]): Dose-Dependent Effect
Activity (Hepatitis B virus [21]): Dose-Dependent Effect
Activity (Hepatitis B virus [22]): Active
Activity (Hepatitis B virus [23]): Dose-Dependent Effect
Activity (Hepatitis B virus [24]): Dose-Dependent Effect
Activity (Hepatitis B virus [25]): Dose-Dependent Effect
Activity (Hepatitis B virus [26]): Dose-Dependent Effect
Activity [27]: Non-Toxic
Activity (Hepatitis B virus [28]): Active
Activity (Hepatitis B virus [29]): Active
Activity (Hepatitis B virus [30]): Active

SMILES: N#Cc1ccc(Cn2nc(-c3cc(Cl)c(NCCCO)nc3F)c3ccccc3c2=O)cc1
half-life [31]: 0.99 h
Tmax [32]: 2 h
Cmax [33]: 27 ng/mL
AUC(0-t) at 24 h [34]: 61.4 ng·h/mL
Tmax [17]: 2.67 h
Cmax [6]: 62.2 ng/mL
AUClast [7]: 498 ng·h/mL
CC50 at 192 h [8]: > 100000 nM
inhibition (HepG2.2.15 [18]): inactive
inhibition (HepG2.2.15 [19]): inactive
Activity (Hepatitis B virus [20]): Dose-Dependent Effect
Activity (Hepatitis B virus [21]): Dose-Dependent Effect
Activity (Hepatitis B virus [22]): Active

SMILES: N#Cc1ccc(Cn2nc(-c3cc(Cl)c(NCCC(=O)O)nc3F)c3ccccc3c2=O)cc1
EC50 (Hepatitis B virus [35]): 1290 nM and 170 nM
CC50 at 192 h [8]: > 100000 nM
inhibition (HepG2.2.15 [18]): inactive
inhibition (HepG2.2.15 [19]): inactive
Activity (Hepatitis B virus [20]): Dose-Dependent Effect
Activity (Hepatitis B virus [21]): Dose-Dependent Effect
Activity (Hepatitis B virus [22]): Active
